Laboratory results: EP4745135A1 (Gluetacs Therapeutics (Shanghai) Co., Ltd., priority 2023, dated 2025)

Tests used:
[1] = target: T1, human Cereblon WT GST-tagged protein (Homo sapiens, UniProt Q96SW2); experiment: CRBN-binding affinity, HTRF (CEREBLON BINDING kit); settings: for inhibition at 0.5 µM: read-out: Inhibition Rate at 0.5 µM (%); for inhibition at 2 µM: read-out: Inhibition Rate at 2 µM (%)
T1 construct: purchased CISBIO 64BDCRBNPEH

[2] = system: Human T lymphocytic leukemia cell line: Jurkat; experiment: Tumor cell proliferation inhibition (CellTiter-Meiluncell luminescent cell viability assay); settings: 96 h; for inhibition at 0.01 µM: read-out: Inhibition Rate at 10 nM (%); for inhibition at 0.5 µM: read-out: Inhibition Rate at 500 nM (%)
Protocol: (§1) The tumor cells used herein were cultured in a cell culture medium listed in table 2 at 37°C in an incubator with 5% CO2. Prior to experimentation, all cell lines used were correctly identified by STR profiling, and tested negative for mycoplasma contamination using a mycoplasma detection kit through routine screenings.
(§2) The IC50 values of the compounds of the present disclosure (including the compounds in Table 1 and Examples) were determined using the CellTiter-Meiluncell Luminescent Cell Viability Assay Kit from Dalian Meilun Biotech Co., Ltd. The detailed procedure is as follows: Tumor cells were seeded in 96-well cell culture plates at the densities specified in Table 3. On the following day, the test compounds of the present disclosure were subjected to serial dilution. The dilution can be performed according to one of the following two methods: • (1) The first dilution method: The test compounds of the present disclosure (including the compounds in Table 1 and Examples) were subjected to 5-fold serial dilutions starting from a highest concentration of 2000 µM, resulting in a total of 9 concentrations from high to low (2000, 400, 80, 16, 3.2, 0.64, 0.128, 0.0256, 0.00512 µM). Subsequently, 0.5 µL of the test compound dilution was transferred into the 96-well plate containing the cells, with each well containing 100 µL of cell culture medium. […] Into the 96-well plate, the diluted test compounds and corresponding detection reagents were added, resulting in final test compound concentrations of 500 nM and 10 nM, respectively. The experimental procedure is described below using the diluted 2 µM test compound as an example.
(§3) 0.5 µL of the aforementioned diluted compound of the present disclosure (including the compounds in Table 1 and Examples) was added to the seeded cells in 100 µL of medium, yielding a final test compound concentration of 10 nM. After the cells were treated with the compounds of the present disclosure for a specified period, the cell viability assay reagent was added to the culture medium according to the kit's instructions to determine cell viability. […] All controls were treated using the same procedure as the compounds of the present disclosure. The growth inhibition curves for the compounds of the present disclosure were plotted using Prism GraphPad software, and the IC50 values were calculated therefrom.

[3] = target: T2, CK1α (Homo sapiens, UniProt P48729+Q96SW2); experiment: Western blot, degradation of substrate protein in hPBMCs; format: cell-based
T2 construct: effects of the compounds of the present disclosure on the expression of target proteins in cells; endogenous in cells; host or cells: human PBMCs (Milecell Biotechnologies)

[4] = target: T3, IKZF1 (Homo sapiens, UniProt Q13422+Q96SW2); experiment: as above; format: cell-based
T3 construct: effects of the compounds of the present disclosure on the expression of target proteins in cells; endogenous in cells; host or cells: human PBMCs (Milecell Biotechnologies)

[5] = target: T4, IKZF3 (Homo sapiens, UniProt Q96SW2+Q9UKT9); experiment: as above; format: cell-based
T4 construct: effects of the compounds of the present disclosure on the expression of target proteins in cells; endogenous in cells; host or cells: human PBMCs (Milecell Biotechnologies)

[6] = target: T5, IKZF2 (Homo sapiens, UniProt Q96SW2+Q9UKS7); experiment: as above; format: cell-based
T5 construct: effects of the compounds of the present disclosure on the expression of target proteins in cells; endogenous in cells; host or cells: human PBMCs (Milecell Biotechnologies)

[7] = target: T6, WEE1 (Homo sapiens, UniProt P30291+Q96SW2); experiment: as above; format: cell-based
T6 construct: effects of the compounds of the present disclosure on the expression of target proteins in cells; endogenous in cells; host or cells: human PBMCs (Milecell Biotechnologies)

[8] = system: GSPT1; experiment: as above; format: cell-based, Human
[9] = system: Human acute myeloid leukemia cell line: Kasumi-1; experiment: Tumor cell proliferation inhibition (CellTiter-Meiluncell luminescent cell viability assay); settings: Kasumi 1, 96 h; for inhibition at 0.01 µM: read-out: Inhibition Rate at 10 nM (%); for inhibition at 0.5 µM: read-out: Inhibition Rate at 500 nM (%)
Protocol: as §1, §2, §3

[10] = system: Human myeloid monocytic leukemia cell (MV-4-11); experiment: as above; settings: MV4-11, 96 h; for inhibition at 0.01 µM: read-out: Inhibition Rate at 10 nM (%); for inhibition at 0.5 µM: read-out: Inhibition Rate at 500 nM (%)
[11] = system: Human multiple myeloma cell (MM.1S); experiment: as above; settings: Homo sapiens, MM1.S, 96 h; for inhibition at 0.01 µM: read-out: Inhibition Rate at 10 nM (%); for inhibition at 0.5 µM: read-out: Inhibition Rate at 500 nM (%)
[12] = system: Human breast cancer cell (MCF-7); experiment: as above; settings: MCF7, 96 h; for inhibition at 0.01 µM: read-out: Inhibition Rate at 10 nM (%); for inhibition at 0.5 µM: read-out: Inhibition Rate at 500 nM (%)
[13] = system: Human acute T lymphocytic leukemia cell (Molt4); experiment: as above; settings: MOLT-4, 96 h; for inhibition at 0.01 µM: read-out: Inhibition Rate at 10 nM (%); for inhibition at 0.5 µM: read-out: Inhibition Rate at 500 nM (%)
[14] = system: Human multiple myeloma peripheral blood B lymphocyte cell (RPMI-8226); experiment: as above; settings: RPMI-8226, 96 h; for inhibition at 0.01 µM: read-out: Inhibition Rate at 10 nM (%); for inhibition at 0.5 µM: read-out: Inhibition Rate at 500 nM (%)
[15] = Western blot, 24 hours of compound treatment, compounds tested at 50 nM and 500 nM (concentration for the table not stated)
[16] = 24 hours treatment, compounds at 50 nM and 500 nM (concentration behind the class not stated)

T5 sequence (Q9UKS7 whole entry): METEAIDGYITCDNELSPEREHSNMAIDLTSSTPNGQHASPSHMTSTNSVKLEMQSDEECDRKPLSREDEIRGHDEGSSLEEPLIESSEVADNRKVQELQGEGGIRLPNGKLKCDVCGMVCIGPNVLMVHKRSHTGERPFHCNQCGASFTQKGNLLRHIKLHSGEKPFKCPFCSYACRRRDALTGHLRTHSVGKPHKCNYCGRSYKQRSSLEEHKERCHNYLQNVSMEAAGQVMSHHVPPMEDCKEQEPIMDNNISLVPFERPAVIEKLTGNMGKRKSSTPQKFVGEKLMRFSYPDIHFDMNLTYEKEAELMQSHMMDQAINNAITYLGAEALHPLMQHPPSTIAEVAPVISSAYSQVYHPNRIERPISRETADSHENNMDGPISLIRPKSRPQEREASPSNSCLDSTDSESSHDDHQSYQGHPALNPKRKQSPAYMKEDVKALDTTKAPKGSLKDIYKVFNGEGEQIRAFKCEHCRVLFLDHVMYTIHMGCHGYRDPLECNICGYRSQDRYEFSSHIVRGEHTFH
T5 sequence (Q96SW2 whole entry): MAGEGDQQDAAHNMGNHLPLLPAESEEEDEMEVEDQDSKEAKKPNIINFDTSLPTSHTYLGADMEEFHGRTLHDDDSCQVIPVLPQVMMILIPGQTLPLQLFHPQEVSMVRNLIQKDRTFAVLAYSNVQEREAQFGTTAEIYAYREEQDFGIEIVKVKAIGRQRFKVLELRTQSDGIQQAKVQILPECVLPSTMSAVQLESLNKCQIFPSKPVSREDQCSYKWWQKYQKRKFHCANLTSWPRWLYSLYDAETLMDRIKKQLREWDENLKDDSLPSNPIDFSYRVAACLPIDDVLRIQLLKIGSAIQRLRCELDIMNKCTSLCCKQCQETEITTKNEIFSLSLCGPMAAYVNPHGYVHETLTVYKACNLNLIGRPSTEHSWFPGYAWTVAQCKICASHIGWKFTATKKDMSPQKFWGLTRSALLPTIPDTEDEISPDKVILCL
T5 sequence (Q16531 whole entry partner): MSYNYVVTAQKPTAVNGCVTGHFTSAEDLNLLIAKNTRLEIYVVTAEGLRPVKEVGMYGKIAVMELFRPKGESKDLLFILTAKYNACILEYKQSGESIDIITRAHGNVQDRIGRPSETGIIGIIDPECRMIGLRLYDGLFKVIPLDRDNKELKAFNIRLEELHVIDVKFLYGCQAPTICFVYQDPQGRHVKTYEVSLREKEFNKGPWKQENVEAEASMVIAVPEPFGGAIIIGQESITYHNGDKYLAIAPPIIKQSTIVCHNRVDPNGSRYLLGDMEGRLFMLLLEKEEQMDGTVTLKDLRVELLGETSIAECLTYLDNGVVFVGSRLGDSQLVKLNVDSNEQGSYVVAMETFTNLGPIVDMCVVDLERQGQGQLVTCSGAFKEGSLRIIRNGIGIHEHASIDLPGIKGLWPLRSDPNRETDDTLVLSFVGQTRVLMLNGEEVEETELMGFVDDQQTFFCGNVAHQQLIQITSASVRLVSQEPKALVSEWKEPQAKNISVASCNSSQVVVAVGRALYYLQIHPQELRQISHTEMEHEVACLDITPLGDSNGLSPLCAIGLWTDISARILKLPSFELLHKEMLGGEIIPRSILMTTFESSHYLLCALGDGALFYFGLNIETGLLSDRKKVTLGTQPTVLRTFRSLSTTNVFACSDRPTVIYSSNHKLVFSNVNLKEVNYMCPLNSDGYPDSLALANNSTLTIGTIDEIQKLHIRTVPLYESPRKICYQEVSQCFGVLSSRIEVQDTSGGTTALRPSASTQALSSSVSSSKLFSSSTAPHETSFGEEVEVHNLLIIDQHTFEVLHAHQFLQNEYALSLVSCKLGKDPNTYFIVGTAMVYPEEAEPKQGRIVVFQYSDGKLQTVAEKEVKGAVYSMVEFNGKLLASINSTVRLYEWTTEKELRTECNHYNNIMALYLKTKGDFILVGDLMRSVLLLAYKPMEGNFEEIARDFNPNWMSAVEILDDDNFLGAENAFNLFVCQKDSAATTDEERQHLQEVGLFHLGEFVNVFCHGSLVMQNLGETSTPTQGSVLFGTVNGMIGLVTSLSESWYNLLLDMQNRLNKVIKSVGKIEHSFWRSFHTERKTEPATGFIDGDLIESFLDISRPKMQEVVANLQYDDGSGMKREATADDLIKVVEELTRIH
T4 sequence (Q9UKT9 whole entry): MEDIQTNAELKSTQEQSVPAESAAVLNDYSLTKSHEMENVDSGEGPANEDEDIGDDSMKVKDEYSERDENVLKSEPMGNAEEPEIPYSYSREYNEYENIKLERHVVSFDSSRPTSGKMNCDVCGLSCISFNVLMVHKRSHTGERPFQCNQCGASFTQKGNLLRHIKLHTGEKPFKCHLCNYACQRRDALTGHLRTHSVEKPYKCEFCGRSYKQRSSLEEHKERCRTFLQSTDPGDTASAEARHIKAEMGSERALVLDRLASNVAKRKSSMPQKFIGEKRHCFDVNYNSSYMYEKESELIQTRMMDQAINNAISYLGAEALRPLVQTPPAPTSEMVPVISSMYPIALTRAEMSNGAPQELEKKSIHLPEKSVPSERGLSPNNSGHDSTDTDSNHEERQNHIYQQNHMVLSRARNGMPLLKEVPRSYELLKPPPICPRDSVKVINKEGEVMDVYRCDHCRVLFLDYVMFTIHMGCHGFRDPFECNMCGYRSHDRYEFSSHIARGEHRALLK
T4 sequence (Q96SW2 whole entry): as the sequence (Q96SW2 whole entry) above
T4 sequence (Q16531 whole entry partner): as the sequence (Q16531 whole entry partner) above
T1 sequence (Q96SW2 whole entry): as the sequence (Q96SW2 whole entry) above
T6 sequence (P30291 whole entry): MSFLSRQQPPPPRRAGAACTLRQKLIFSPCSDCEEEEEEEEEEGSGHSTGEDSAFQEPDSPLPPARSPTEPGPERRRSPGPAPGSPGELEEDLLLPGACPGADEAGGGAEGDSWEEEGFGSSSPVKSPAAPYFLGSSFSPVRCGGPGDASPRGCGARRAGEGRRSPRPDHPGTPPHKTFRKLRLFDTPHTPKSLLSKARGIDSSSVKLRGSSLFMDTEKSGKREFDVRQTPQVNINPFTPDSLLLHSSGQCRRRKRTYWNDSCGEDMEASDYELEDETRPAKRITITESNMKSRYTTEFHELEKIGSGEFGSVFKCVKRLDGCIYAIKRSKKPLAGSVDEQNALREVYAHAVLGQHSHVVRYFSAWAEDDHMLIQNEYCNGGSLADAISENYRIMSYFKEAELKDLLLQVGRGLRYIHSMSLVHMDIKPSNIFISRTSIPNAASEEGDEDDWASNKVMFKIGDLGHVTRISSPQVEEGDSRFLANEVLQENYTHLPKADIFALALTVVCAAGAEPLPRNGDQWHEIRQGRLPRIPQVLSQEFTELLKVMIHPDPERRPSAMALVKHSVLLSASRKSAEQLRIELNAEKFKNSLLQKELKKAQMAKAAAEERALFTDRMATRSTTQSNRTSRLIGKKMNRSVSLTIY
T6 sequence (Q96SW2 whole entry): as the sequence (Q96SW2 whole entry) above
T6 sequence (Q16531 whole entry partner): as the sequence (Q16531 whole entry partner) above
T3 sequence (Q13422 whole entry): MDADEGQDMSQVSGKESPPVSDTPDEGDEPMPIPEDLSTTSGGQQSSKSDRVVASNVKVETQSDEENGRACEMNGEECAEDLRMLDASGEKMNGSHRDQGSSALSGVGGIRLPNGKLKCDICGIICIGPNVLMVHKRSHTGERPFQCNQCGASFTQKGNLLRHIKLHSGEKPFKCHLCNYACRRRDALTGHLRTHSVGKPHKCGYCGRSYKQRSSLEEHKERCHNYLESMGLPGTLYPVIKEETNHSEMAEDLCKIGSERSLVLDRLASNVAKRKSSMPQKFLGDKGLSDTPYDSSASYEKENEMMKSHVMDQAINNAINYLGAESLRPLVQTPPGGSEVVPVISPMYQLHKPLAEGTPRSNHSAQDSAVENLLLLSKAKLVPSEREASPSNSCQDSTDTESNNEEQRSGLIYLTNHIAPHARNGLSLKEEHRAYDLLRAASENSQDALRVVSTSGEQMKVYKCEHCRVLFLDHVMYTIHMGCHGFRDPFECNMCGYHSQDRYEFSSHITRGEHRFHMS
T3 sequence (Q96SW2 whole entry): as the sequence (Q96SW2 whole entry) above
T3 sequence (Q16531 whole entry partner): as the sequence (Q16531 whole entry partner) above
T2 sequence (P48729 whole entry): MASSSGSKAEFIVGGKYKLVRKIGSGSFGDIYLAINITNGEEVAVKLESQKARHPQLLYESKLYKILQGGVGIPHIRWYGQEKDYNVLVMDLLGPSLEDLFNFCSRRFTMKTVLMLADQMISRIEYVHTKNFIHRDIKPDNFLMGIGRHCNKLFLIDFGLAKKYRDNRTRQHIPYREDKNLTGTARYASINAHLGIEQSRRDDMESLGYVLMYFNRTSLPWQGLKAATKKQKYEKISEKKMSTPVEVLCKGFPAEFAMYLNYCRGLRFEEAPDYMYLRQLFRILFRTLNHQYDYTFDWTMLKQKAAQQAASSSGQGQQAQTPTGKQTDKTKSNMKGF
T2 sequence (Q96SW2 whole entry): as the sequence (Q96SW2 whole entry) above
T2 sequence (Q16531 whole entry partner): as the sequence (Q16531 whole entry partner) above

inhibition at 0.5 µM [1] | inhibition at 2 µM [1] | Compound | CK1α substrate protein remaining % [3, 15] | IKZF 1 substrate protein remaining % [4, 15] | IKZF3 substrate protein remaining % [5, 15] | IKZF2 substrate protein remaining % [6, 15] | Wee1 substrate protein remaining % [7, 15] | GSPT1 substrate protein remaining % [8, 15] | inhibition at 0.01 µM [9] | inhibition at 0.5 µM [9] | inhibition at 0.01 µM [10] | inhibition at 0.5 µM [10] | inhibition at 0.01 µM [11] | inhibition at 0.5 µM [11] | inhibition at 0.01 µM [12] | inhibition at 0.5 µM [12] | further results
53 to 60% | 80 to 100% | O=C1CCC(N2Cc3c(CN4CCN(c5cccc(F)c5)CC4)cccc3C2=S)C(=O)N1 (centres unmarked) [GT-08263, 3-(4-((4-(3-fluorophenyl)piperazin-1-yl)methyl)-1-thioxoisoindolin-2-yl)piperidine-2,6-dione] | A (0% ≤ substrate protein remaining % ≤ 80%) | B (80%< substrate protein remaining %≤ 100%) | B (80%< substrate protein remaining %≤ 100%) | B (80%< substrate protein remaining %≤ 100%) | A (0% ≤ substrate protein remaining % ≤ 80%) | A (0% ≤ substrate protein remaining % ≤ 80%) | 50 to 60% | 60 to 70% | 60 to 80% | 80 to 100% | – | – | – | – | inhibition at 0.01 µM [2]: 20 to 30%; inhibition at 0.5 µM [2]: 30 to 40%
40 to 53% | 60 to 80% | O=C1CCC(N2Cc3c(CN4CCN(c5cccc(F)c5F)CC4)cccc3C2=S)C(=O)N1 (centres unmarked) [GT-08268, 3-(4-((4-(2,3-difluorophenyl)piperazin-1-yl)methyl)-1-thioxoisoindolin-2-yl)piperidine-2,6-dione] | B (80%< substrate protein remaining %≤ 100%) | B (80%< substrate protein remaining %≤ 100%) | B (80%< substrate protein remaining %≤ 100%) | B (80%< substrate protein remaining %≤ 100%) | A (0% ≤ substrate protein remaining % ≤ 80%) | A (0% ≤ substrate protein remaining % ≤ 80%) | 50 to 60% | 50 to 60% | 60 to 80% | 60 to 80% | – | – | – | – | –
60 to 80% | 80 to 100% | O=C1CCC(N2Cc3cc(CN4CC=C(c5n[nH]c6cc(F)ccc56)CC4)ccc3C2=S)C(=O)N1 (centres unmarked) [GT-09270, 3-(5-((4-(6-fluoro-1H-indazol-3-yl)-3,6-dihydropyridin-1(2H)-yl)methyl)-1-thioxoisoindolin-2-yl)piperidine-2,6-dione] | – | – | – | – | – | – | – | – | 80 to 100% | 80 to 100% | 50 to 60% | 80 to 100% | 10 to 20% | 70 to 80% | inhibition at 0.01 µM [13]: 70 to 80%; inhibition at 0.5 µM [13]: 80 to 100%; inhibition at 0.01 µM [14]: 20 to 30%; inhibition at 0.5 µM [14]: 70 to 80%; CK1α substrate protein remaining % [3, 16]: A (0% ≤ substrate protein remaining % ≤ 80%); IKZF 1 substrate protein remaining % [4, 16]: A (0% ≤ substrate protein remaining % ≤ 80%); IKZF3 substrate protein remaining % [5, 16]: B (80%< substrate protein remaining %≤ 100%); IKZF2 substrate protein remaining % [6, 16]: B (80%< substrate protein remaining %≤ 100%); Wee1 substrate protein remaining % [7, 16]: A (0% ≤ substrate protein remaining % ≤ 80%); GSPT1 substrate protein remaining % [8, 16]: B (80%< substrate protein remaining %≤ 100%)
40 to 53% | 80 to 100% | O=C1CCC(N2Cc3cc(CN4CC=C(c5cccc6c(F)cccc56)CC4)ccc3C2=S)C(=O)N1 (centres unmarked) [GT-09276, 3-(5-((4-(5-fluoronaphthalen-1-yl)-3,6-dihydropyridin-1(2H)-yl)methyl)-1-thioxoisoindolin-2-yl)piperidine-2,6-dione] | – | – | – | – | – | – | – | – | 80 to 100% | 80 to 100% | 70 to 80% | 80 to 100% | 30 to 40% | 80 to 100% | inhibition at 0.01 µM [13]: 70 to 80%; inhibition at 0.5 µM [13]: 70 to 80%; inhibition at 0.01 µM [14]: 20 to 30%; inhibition at 0.5 µM [14]: 70 to 80%; CK1α substrate protein remaining % [3, 16]: A (0% ≤ substrate protein remaining % ≤ 80%); IKZF 1 substrate protein remaining % [4, 16]: B (80%< substrate protein remaining %≤ 100%); IKZF3 substrate protein remaining % [5, 16]: A (0% ≤ substrate protein remaining % ≤ 80%); IKZF2 substrate protein remaining % [6, 16]: A (0% ≤ substrate protein remaining % ≤ 80%); Wee1 substrate protein remaining % [7, 16]: A (0% ≤ substrate protein remaining % ≤ 80%); GSPT1 substrate protein remaining % [8, 16]: A (0% ≤ substrate protein remaining % ≤ 80%)

More lines, now with the values behind:

Compound | inhibition at 0.5 µM [1] | inhibition at 2 µM [1] | CK1α substrate protein remaining % [3, 15] | IKZF 1 substrate protein remaining % [4, 15] | IKZF3 substrate protein remaining % [5, 15] | IKZF2 substrate protein remaining % [6, 15] | Wee1 substrate protein remaining % [7, 15] | GSPT1 substrate protein remaining % [8, 15] | inhibition at 0.01 µM [9] | inhibition at 0.5 µM [9] | inhibition at 0.01 µM [10] | inhibition at 0.5 µM [10] | inhibition at 0.01 µM [11] | inhibition at 0.5 µM [11] | inhibition at 0.01 µM [12] | inhibition at 0.5 µM [12] | further results
O=C1CCC(N2Cc3cc(CN4CCN(c5cccc(Cl)c5Cl)CC4)ccc3C2=S)C(=O)N1 (centres unmarked) [GT-04474, 3-(5-((4-(2,3-dichlorophenyl)piperazin-1-yl)methyl)-1-thioxoisoindolin-2-yl)piperidine-2,6-dione] | – | – | B (80%< substrate protein remaining %≤ 100%) | A (0% ≤ substrate protein remaining % ≤ 80%) | A (0% ≤ substrate protein remaining % ≤ 80%) | A (0% ≤ substrate protein remaining % ≤ 80%) | A (0% ≤ substrate protein remaining % ≤ 80%) | A (0% ≤ substrate protein remaining % ≤ 80%) | – | – | – | – | – | – | – | – | IC50 ([1]; CRBN binding, HTRF, 3 hours at room temperature, read-out: HTRF IC50): 500 to 1000 nM; IC50 ([2]; read-out: Inhibitory activity (IC50, nM) on tumor cell proliferation, Jurkat): 50 to 100 nM
O=C1CCC(N2Cc3c(CN4CCN(c5ccc(Cl)cc5)CC4)cccc3C2=S)C(=O)N1 (centres unmarked) [GT-08266, 3-(4-((4-(4-chlorophenyl)piperazin-1-yl)methyl)-1-thioxoisoindolin-2-yl)piperidine-2,6-dione] | 30 to 40% | 60 to 80% | B (80%< substrate protein remaining %≤ 100%) | B (80%< substrate protein remaining %≤ 100%) | B (80%< substrate protein remaining %≤ 100%) | B (80%< substrate protein remaining %≤ 100%) | A (0% ≤ substrate protein remaining % ≤ 80%) | A (0% ≤ substrate protein remaining % ≤ 80%) | 50 to 60% | 50 to 60% | 60 to 80% | 80 to 100% | 40 to 50% | 50 to 60% | 40 to 50% | 40 to 50% | –
O=C1CCC(N2Cc3c(CN4CC=C(c5cccc(F)c5Cl)CC4)cccc3C2=S)C(=O)N1 (centres unmarked) [GT-08301, 3-(4-((4-(2-chloro-3-fluorophenyl)-3,6-dihydropyridin-1(2H)-yl)methyl)-1-thioxoisoindolin-2-yl)piperidine-2,6-dione] | – | – | A (0% ≤ substrate protein remaining % ≤ 80%) | B (80%< substrate protein remaining %≤ 100%) | B (80%< substrate protein remaining %≤ 100%) | B (80%< substrate protein remaining %≤ 100%) | A (0% ≤ substrate protein remaining % ≤ 80%) | A (0% ≤ substrate protein remaining % ≤ 80%) | 50 to 60% | 50 to 60% | 40 to 60% | 40 to 60% | – | – | – | – | inhibition at 0.01 µM [2]: 20 to 30%; inhibition at 0.5 µM [2]: 30 to 40%
